In ChEMBL document CHEMBL5308504, “Tm Shift (DSF) assay results for EUbOPEN Chemogenomics Library” (2023):
Several values for one entry are separate records, joined by “and”; a condition that tells them apart may be missing. Identical values can stand only once.

Tests used:
Peregrin (Homo sapiens) = target: T1, Peregrin (Homo sapiens) (UniProt P55201); details: Compound concentration 20.0 uM, Protein concentration 2.0 uM, Result type QC Liability
T1 sequence (whole entry): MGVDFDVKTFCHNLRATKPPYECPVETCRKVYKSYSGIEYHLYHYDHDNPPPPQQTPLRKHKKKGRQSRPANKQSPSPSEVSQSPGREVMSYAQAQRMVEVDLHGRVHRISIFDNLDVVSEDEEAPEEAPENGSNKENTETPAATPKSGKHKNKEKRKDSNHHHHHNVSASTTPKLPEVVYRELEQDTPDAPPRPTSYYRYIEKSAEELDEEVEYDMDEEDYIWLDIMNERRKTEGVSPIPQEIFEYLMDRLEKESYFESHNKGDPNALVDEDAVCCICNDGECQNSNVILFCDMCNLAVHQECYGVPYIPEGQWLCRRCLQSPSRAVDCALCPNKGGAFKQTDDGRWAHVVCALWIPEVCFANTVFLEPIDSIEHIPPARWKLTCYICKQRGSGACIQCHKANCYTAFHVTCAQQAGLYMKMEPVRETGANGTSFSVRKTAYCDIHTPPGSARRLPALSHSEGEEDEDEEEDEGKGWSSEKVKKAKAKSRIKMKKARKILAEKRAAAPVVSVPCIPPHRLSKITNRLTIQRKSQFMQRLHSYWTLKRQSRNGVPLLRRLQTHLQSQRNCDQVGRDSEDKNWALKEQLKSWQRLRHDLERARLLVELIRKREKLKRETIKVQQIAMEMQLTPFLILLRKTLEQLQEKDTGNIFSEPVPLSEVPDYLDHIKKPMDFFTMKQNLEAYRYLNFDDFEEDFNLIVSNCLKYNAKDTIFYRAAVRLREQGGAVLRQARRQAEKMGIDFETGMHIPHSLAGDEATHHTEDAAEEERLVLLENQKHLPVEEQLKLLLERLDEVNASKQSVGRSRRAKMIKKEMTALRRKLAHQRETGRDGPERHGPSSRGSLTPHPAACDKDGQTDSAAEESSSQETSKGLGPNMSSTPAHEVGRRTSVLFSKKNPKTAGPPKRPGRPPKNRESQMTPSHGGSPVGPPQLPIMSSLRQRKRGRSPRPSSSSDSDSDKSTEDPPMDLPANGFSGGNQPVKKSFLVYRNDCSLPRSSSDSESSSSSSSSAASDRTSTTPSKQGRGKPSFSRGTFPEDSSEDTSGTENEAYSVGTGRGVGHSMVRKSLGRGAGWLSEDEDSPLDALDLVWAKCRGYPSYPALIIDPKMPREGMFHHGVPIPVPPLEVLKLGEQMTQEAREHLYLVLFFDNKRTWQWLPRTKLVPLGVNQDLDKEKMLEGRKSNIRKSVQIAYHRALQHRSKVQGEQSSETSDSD

[1] = target: Fibroblast growth factor receptor 3 (Homo sapiens) (UniProt P22607); details: Compound concentration 20.0 uM, Protein concentration 2.0 uM, Result type QC Liability
Fibroblast growth factor receptor 3 (Homo sapiens), sequence (P22607 23-806 limits assumed): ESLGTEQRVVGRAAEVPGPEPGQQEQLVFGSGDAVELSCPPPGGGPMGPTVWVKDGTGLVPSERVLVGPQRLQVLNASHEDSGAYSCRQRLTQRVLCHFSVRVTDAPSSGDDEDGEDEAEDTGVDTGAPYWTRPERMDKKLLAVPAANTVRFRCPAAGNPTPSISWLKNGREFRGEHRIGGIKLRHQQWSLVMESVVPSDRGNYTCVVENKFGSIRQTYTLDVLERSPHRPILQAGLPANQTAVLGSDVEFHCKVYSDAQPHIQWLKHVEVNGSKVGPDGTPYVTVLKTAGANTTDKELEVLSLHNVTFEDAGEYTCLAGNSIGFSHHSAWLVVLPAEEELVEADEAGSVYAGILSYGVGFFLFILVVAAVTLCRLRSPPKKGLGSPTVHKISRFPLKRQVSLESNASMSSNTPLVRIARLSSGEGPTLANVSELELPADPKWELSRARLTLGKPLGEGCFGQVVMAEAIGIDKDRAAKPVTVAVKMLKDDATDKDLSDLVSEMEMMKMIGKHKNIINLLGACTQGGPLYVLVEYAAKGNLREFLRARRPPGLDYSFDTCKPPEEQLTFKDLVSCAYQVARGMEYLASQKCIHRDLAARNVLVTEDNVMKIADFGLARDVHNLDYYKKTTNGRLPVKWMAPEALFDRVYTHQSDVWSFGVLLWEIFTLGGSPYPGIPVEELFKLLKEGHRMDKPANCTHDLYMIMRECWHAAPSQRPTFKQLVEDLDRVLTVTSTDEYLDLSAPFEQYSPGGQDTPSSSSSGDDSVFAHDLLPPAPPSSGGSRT
Description: Thermal Shift Assay. Domain: start/stop: P449-E759

| Compound | ΔTm (Peregrin (Homo sapiens)) | ΔTm [1] | ΔTm (Peregrin (Homo sapiens); tested as the 2H-labelled form) [°C] | ΔTm ([1]; tested as the 2H-labelled form) [°C] |
| --- | --- | --- | --- | --- |
| N=C(N)NCCC[C@@H](NC(=O)C(c1ccccc1)c1ccccc1)C(=O)NCc1ccc(CNC(N)=O)cc1 | -2 °C | 0.46 °C |  |  |
| Cc1cc2ncnn2cc1Nc1ncc2c(n1)n(C1CCOCC1)c(=O)n2C | -4.35 °C | 0.53 °C |  |  |
| O=C1CN(c2ccccc2F)C(NCCN2CCOCC2)=C1c1nc2cc(Br)ccc2c(=O)[nH]1 | -2.29 °C | 0.53 °C |  |  |
| CC(C)[C@H](CO)Nc1nc(Nc2ccc(C(=O)O)c(Cl)c2)c2ncn(C(C)C)c2n1 | 0.06 °C | 4.45 °C |  |  |
| CCn1ccc(Nc2ncc3c(n2)-c2c(nn(C)c2-c2ccc(-c4cnn(C)c4)cc2Cl)CC3)n1 | -0.93 °C | 2.93 °C |  |  |
| Cc1cc(-c2cnc(N)c3c(-c4ccc5scnc5c4)csc23)n(C)n1 | -1.57 °C | 0.89 °C |  |  |
| O=C(CNCc1cc2ccccc2[nH]1)N[C@H]1CC[C@@H](c2nc3ccccc3[nH]2)CC1 | 0.07 °C | 0.46 °C |  |  |
| CCc1nc(-c2cccc(C)c2)c(-c2ccncc2)s1 | -0.75 °C | 0.65 °C |  |  |
| CC[C@@H](Nc1c(C#N)c(-c2ccc(-c3cccc(C)c3F)cc2)nc2cnccc12)C(=O)O | -0.66 °C | 0 °C |  |  |
| COCCc1ccc(-c2c(C)nc3c(N4CCOCC4)ccnn23)cn1 | -2.19 °C | 1.27 °C |  |  |
| FC(F)(F)c1ccc(CNc2ccc(Cc3c[nH]c4ncc(Cl)cc34)cn2)cn1 | -0.43 °C | 3.63 °C |  |  |
| CCCNc1ccc2ncc(-c3ccncc3)n2n1 | 0.26 °C | 3.37 °C |  |  |
| CN(C)[C@H]1C[C@H](n2cnc(-c3ccc(F)cn3)c2-c2ccnc3[nH]ccc23)C1 | -0.35 °C | 0.61 °C |  |  |
| CC(C)(C)C(=O)NCc1ccc(Cl)c(C(=O)Nc2ncc[nH]2)c1 | -2.86 °C | 0.47 °C |  |  |
| CNC(=O)COc1cc2cc(Nc3nc(N4CCC(C(=O)N(C)C)CC4)ncc3Cl)cc(OC)c2n(C)c1=O | -2.49 °C | 0.39 °C |  |  |
| CN(C1CCc2c(c3ccccc3n2CC(=O)O)C1)S(=O)(=O)c1ccc(F)cc1 (centres undefined) | -2.54 °C | 0.46 °C |  |  |

| Compound | ΔTm (Peregrin (Homo sapiens)) | ΔTm [1] | ΔTm (Peregrin (Homo sapiens); tested as the 2H-labelled form) [°C] | ΔTm ([1]; tested as the 2H-labelled form) [°C] |
| --- | --- | --- | --- | --- |
| Cn1nccc1-c1ccc(Sc2cccc(C3(C(N)=O)CCOCC3)c2)cc1 | -2.35 °C | 0.47 °C |  |  |
| COc1cc(F)ccc1-c1ncnc(Nc2cccc(C[S@](C)(=N)=O)c2)n1 | -1.17 °C | 1.31 °C |  |  |
| COc1cc(C(=O)O)ncc1C#Cc1ccccc1NS(=O)(=O)c1cccc2c(N(C)C)ccnc12 | -0.45 °C | 0.5 °C |  |  |
| C[C@@H]1Cc2c([nH]c3ccccc23)[C@@H](c2c(F)cc(/C=C/C(=O)O)cc2F)N1CC(C)(C)F | -4.53 °C | 0.58 °C |  |  |
| CNC(=O)c1ccc2c(c1)NC(=O)/C2=C(\Nc1ccc(CN2CCCCC2)cc1)c1ccccc1 | -0.66 °C | 3.97 °C |  |  |
| CNC(=O)c1nnc(NC(=O)C2CC2)cc1Nc1cccc(-c2ncn(C)n2)c1OC |  |  | -1.46 | 1.05 |
| Nc1ncnc2c1ccn2[C@@H]1O[C@H]([C@@H](O)c2ccccc2)[C@@H](O)[C@H]1O | -1.55 °C | 0.72 °C |  |  |
| C[S+](C)[O-] | 0 °C (2×) and -0.4 °C | 0 °C (2×) and 0.62 °C |  |  |
| CCO[C@H](COc1ccc(C(F)(F)F)cc1)CSc1ccc(OCC(=O)O)c(C)c1 | -0.87 °C | 0.48 °C |  |  |
| CN1CCN(C(=O)c2ccc3cc2OCCOCCNc2ccn4ncc-3c4n2)CC1 | -1.15 °C | 2.23 °C |  |  |
| CCOc1cc(CC(=O)N[C@@H](CC(C)C)c2ccccc2N2CCCCC2)ccc1C(=O)O | -3.67 °C | 0.18 °C |  |  |
| CN(CC(=O)Nc1ccc(F)c(F)c1F)C(=O)c1ccc2c(c1)OCCO2 | -0.72 °C | 0.6 °C |  |  |
| Cc1ccc2c(NS(=O)(=O)c3ccccc3Cl)cccc2c1Oc1ncccc1-c1ccnc(N[C@H]2CCCNC2)n1 | -3.81 °C | 0.02 °C |  |  |
| CN1CCN(C(=O)c2ccc(N(C)c3ncc(C(F)(F)F)c(N[C@@H]4CCC[C@@H]4C(N)=O)n3)cc2)CC1 | -2.51 °C | 0.46 °C |  |  |
| CC(C)(O)c1coc(S(=O)(=O)NC(=O)Nc2c3c(cc4c2CCC4)CCC3)c1 | -2.87 °C | 0.84 °C |  |  |
| O=c1cc(C2CCNCC2)n2nc3cccc(Cl)c3c2[nH]1 | -1.18 °C | 0.45 °C |  |  |
